Key:
[1] = molecular target: Human immunodeficiency virus type 1 integrase (Human immunodeficiency virus 1, UniProt Q7ZJM1); experiment: Allosteric inhibition of HIV-1 integrase by ELISA based IN-DNA assembly/Strand transfer assay
[2] = test system: Human immunodeficiency virus 1; experiment: Antiviral activity against wild type HIV-1 NL4-3 infected in human MT4 cells assessed as reduction in viral replication; type: functional, organism-based; conditions: Human immunodeficiency virus 1, NL4-3, MT4
[3] = test system: Human immunodeficiency virus 1; experiment: Antiviral activity against HIV-1 T125A infected in human MT4 cells assessed as reduction in viral replication; type: functional, organism-based; conditions: Human immunodeficiency virus 1, T125A
[4] = Metabolic stability in human liver microsome; type: ADME; conditions: microsomes; note: time not given here
[5] = Metabolic stability in rat liver microsome; type: ADME; conditions: microsomes; note: time not given here
[6] = Permeability of the compound in human Caco-2 cells; type: ADME, cell-based; conditions: read-out: permeability
[7] = Half life in rat at 0.3 mg/kg, iv; type: ADME, organism-based; conditions: in vivo
[8] = Clearance in rat at 0.3 mg/kg, iv; type: ADME, organism-based; conditions: in vivo
[9] = Volume of distribution at steady state in rat at 0.3 mg/kg, iv; type: ADME, organism-based; conditions: in vivo, read-out: Vdss
[10] = MRT in rat at 0.3 mg/kg, iv; type: ADME, organism-based; conditions: in vivo
[11] = Oral bioavailability in rat at 3 mg/kg; type: ADME, organism-based; conditions: in vivo

Sequence of Human immunodeficiency virus type 1 integrase (Q7ZJM1 whole entry): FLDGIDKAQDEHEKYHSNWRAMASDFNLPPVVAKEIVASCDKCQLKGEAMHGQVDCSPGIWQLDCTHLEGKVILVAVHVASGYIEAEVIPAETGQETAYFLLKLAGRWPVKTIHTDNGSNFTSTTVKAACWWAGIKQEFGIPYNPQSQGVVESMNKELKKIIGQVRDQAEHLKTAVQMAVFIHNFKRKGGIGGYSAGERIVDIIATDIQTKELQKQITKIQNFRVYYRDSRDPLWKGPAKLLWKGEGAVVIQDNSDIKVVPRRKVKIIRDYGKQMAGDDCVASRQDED

| SMILES | IC50 [1] [nM] | EC50 [2] [nM] | EC50 [3] [nM] | Stability [4] [%] | Stability [5] [%] | Papp [6] [×10⁻⁶ cm/s] | half-life [7] [h] | clearance [8] [mL/min/kg] | Vd [9] [L/kg] | MRT [10] [h] | bioavailability [11] [%] |
| --- | --- | --- | --- | --- | --- | --- | --- | --- | --- | --- | --- |
| CNC(=O)c1cc(C)c(C(OC(C)(C)C)C(=O)O)c2c1CC[C@]21CC[C@@H](C)CC1 (some centres undefined) | 160 | 560 | 9900 | 100 | 98 | 8 |  |  |  |  |  |
| Cc1ccc(-c2c([C@H](OC(C)(C)C)C(=O)O)c(C)nc3ccccc23)cc1C | 12 |  |  |  |  |  |  |  |  |  |  |
| Cc1cc(C(=O)NCC(C)C)c2c(c1C(OC(C)(C)C)C(=O)O)[C@]1(CC2)CC[C@@H](C)CC1 (some centres undefined) | 5.7 | 33 | 3300 |  |  | 15 |  |  |  |  |  |
| Cc1ccc2c(c1C(OC(C)(C)C)C(=O)O)[C@]1(CC[C@H](C)CC1)CC2O (some centres undefined) | 430 | 15000 |  |  |  |  |  |  |  |  |  |
| Cc1cc(C(=O)NC2CCCCCC2)c2c(c1C(OC(C)(C)C)C(=O)O)[C@]1(CC2)CC[C@@H](C)CC1 (some centres undefined) | 1.8 | 21 | 580 | 83 | 87 | 30 |  |  |  |  |  |
| Cc1cc(C(=O)NC2CCCCC2)c2c(c1C(OC(C)(C)C)C(=O)O)[C@]1(CC2)CC[C@@H](C)CC1 (some centres undefined) | 2 | 21 | 130 | 94 | 99 | 24 |  |  |  |  |  |
| Cc1cc(NC(=O)CC(C)C)c2c(c1C(OC(C)(C)C)C(=O)O)[C@]1(CC2)CC[C@@H](C)CC1 (some centres undefined) | 2.2 | 30 | 940 | 72 | 97 | 29 |  |  |  |  |  |
| Cc1ccc2c(c1C(OC(C)(C)C)C(=O)O)[C@]1(CC2)CC[C@@H](C)CC1 (mixture of isomers) | 54 | 5300 | > 6000 | 57 | 51 | 48 |  |  |  |  |  |
| Cc1cc(C(=O)NC2CCCCC2)c2c(c1[C@@H](OC(C)(C)C)C(=O)O)[C@]1(CC2)CC[C@@H](C)CC1 | 8.3 | 110 | 1200 | 92 | 100 | 20 |  |  |  |  |  |
| Cc1cn([C@H]2C[C@H](N=[N+]=[N-])[C@@H](CO)O2)c(=O)[nH]c1=O [ZIDOVUDINE] |  | 29.9 | 38.9 |  |  |  |  |  |  |  |  |
| Cc1ccc2c(c1C(OC(C)(C)C)C(=O)O)[C@]1(CC[C@H](C)CC1)CC2=O (some centres undefined) | 490 | 3200 |  |  |  |  |  |  |  |  |  |
| Cc1ccc2c(c1C(OC(C)(C)C)C(=O)O)[C@]1(CCC2)CC[C@@H](C)CC1 (mixture of isomers) | 50 | 4000 |  |  |  |  |  |  |  |  |  |
| COC1C[C@]2(CC[C@@H](C)CC2)c2c1ccc(C)c2C(OC(C)(C)C)C(=O)O (some centres undefined) | 53 | 2300 |  |  |  |  |  |  |  |  |  |
| Cc1cc(C(=O)NC(C)C)c2c(c1C(OC(C)(C)C)C(=O)O)[C@]1(CC2)CC[C@@H](C)CC1 (some centres undefined) | 20 | 110 | 2700 | 99 | 96 | 13 |  |  |  |  |  |
| Cc1cc(C(=O)NC2CCCCC2)c2c(c1[C@H](OC(C)(C)C)C(=O)O)[C@]1(CC2)CC[C@@H](C)CC1 | 1.4 | 7.4 | 120 | 91 | 100 | 20 | 4.2 | 2.67 | 0.57 | 3.6 | 64 |
| Cc1cc(C(=O)N(C)C)c2c(c1C(OC(C)(C)C)C(=O)O)[C@]1(CC2)CC[C@@H](C)CC1 (some centres undefined) | 1800 | 2600 | > 6000 | 97 | 94 | 7 |  |  |  |  |  |

Source: ChEMBL document CHEMBL5584251, “Design and synthesis of novel and potent allosteric HIV-1 integrase inhibitors with a spirocyclic moiety” (Bioorg Med Chem Lett, 2024)
